This is an account of results in patent US7687508B2, “Cyclic derivatives as modulators of chemokine receptor activity” (Bristol-Myers Squibb Company, priority 2006, dated 2010).

The target of series [1] is T1, hERG (Homo sapiens, UniProt Q12809).
T1 construct: expressed in transfected cells
Nature of the series: hERG flux (Tl+ flux, FLIPR) in HEK293 cells. The class given is cell-based. To be noted: HEK293 cells stably expressing hERG. As to the method: HEK293 cells stably-expressing hERG channels were grown (37° C., 5% CO2) in Dulbecco's Modified Eagle's Media supplemented with 10% Sigma fetal bovine serum, non-essential amino acids, 2 mM L-glutamine and 500 μg/ml G418, at incubator.
A 2 mM stock of BTC-AM dye (Molecular Probes, Eugene, Oreg.) was prepared in 100% DMSO and then added 1:1 to 10% (w/v) pluronic acid in DMSO on the day of assay. The dye was then diluted in hERG external EP buffer (140 mM NaCl, 4.0 mM KCl, 1.8 mM CaCl2, 1.0 mM MgCl2, 10 mM HEPES, pH 7.3 and 10 mM glucose; all buffer components obtained from Sigma Chemical). […] Cells are incubated at 21° C. for 45 minutes.
These compounds were then serially-diluted at a 1:2 ratio in DMSO in columns 1-10 and 11-20 of a 384-well plate. Assay-ready plates were generated by stamping 2.5 μl from the DMSO serially diluted plate, which was prepared on the Velocity 11 BioCel. Aqueous plates were created by adding 48 μl of EP buffer and then were diluted 30-45 minutes before the assay was read on the FLIPR. […] Final DMSO concentration in the assay is 1%. Assay-ready aqueous plates were prepared and diluted on a Cybio liquid handler.
Data collection proceeded every second for 48 seconds, and then continued every three seconds for an additional 2 minutes.
The dynamic range of the assay was determined from blanks and totals wells. The totals wells (columns 21 and 22) define maximal hERG activation for the plate (no test compound present), and the blanks wells (columns 23 and 24) define 100% hERG inhibition. […] Raw data points in each sample well were first corrected for cell/signal variation, negative control (blanks) background, and normalized to the positive controls (totals) using the online FLIPR software. Test compound concentration response curves for the hERG Tl^+ flux data were then fit using Excel Fit (ID Business Solutions Limited, Surrey, UK) with a single-site logistic equation, Y=A+((B−A)/1+((C/X)^D))) where A=maximal inhibition. Data were analyzed by fitting maximum amplitudes of change in fluorescence for Tl^+ flux for a given condition of test compound.

Series [2] is described as follows: Parallel Artificial Membrane Permeability Assay (PAMPA). The class given is in vitro ADME. To be noted: apical and basolateral pH 7.4. As to the method: All experiments are conducted in triplicate determinations.
A general note: In PAMPA a lipid-coated filter parts donor from acceptor wells.

Series [3] deals with T1, hERG. The series is described as follows: hERG patch clamp (whole-cell, HEK-293). As to conditions: for inhibition at 10000 nM: pH 7.4, 10,000 nM; for inhibition at 30000 nM: pH 7.4, 30,000 nM. Format: cell-based.
Series [4] concerns the target human cardiac sodium channel, SCN5A (Nav1.5) (Homo sapiens, UniProt Q14524). The series is described as follows: Sodium channel patch clamp (whole-cell, HEK-293). The class given is cell-based. To be noted: HEK-293 cells expressing human cardiac sodium channel SCN5A, 30,000 nM, read-out: Na+ channel patch clamp (% inhibition). How it is done: The compound was tested at a protein-free aqueous buffer. For determining steady state inhibition, sodium currents were elicited every 5 seconds using the following voltage protocol: cells were held at a potential of −90 mV and stepped to −20 mV for 60 ms. Effects were calculated by measuring inhibition of peak current during the test pulse to −20 mV. Rate-dependence of inhibition was assessed by stimulation at frequencies of 1 Hz and 4 Hz.

The target in series [5] is T2, human CCR2 (Homo sapiens, UniProt P41597).
T2 sequence (P41597 1-360 isoform P41597-2): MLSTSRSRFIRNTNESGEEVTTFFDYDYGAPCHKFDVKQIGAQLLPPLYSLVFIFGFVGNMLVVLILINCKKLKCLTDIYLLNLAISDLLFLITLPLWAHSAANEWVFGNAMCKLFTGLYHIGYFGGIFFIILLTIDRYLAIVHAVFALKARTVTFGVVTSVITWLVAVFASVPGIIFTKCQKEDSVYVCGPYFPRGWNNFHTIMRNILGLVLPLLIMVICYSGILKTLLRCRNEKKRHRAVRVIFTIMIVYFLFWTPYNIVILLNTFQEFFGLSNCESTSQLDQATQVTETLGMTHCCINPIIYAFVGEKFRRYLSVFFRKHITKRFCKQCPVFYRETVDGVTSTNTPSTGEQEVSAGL
The series is described as follows: Human peripheral blood mononuclear cell binding (CCR2 binding), 125I-human MCP-1 tracer. Further details: hPBMCs were isolated from human leukopak (Biological Specialty Inc.); endogenous in cells; host or cells: human peripheral blood mononuclear cells from leukopak (Biological Specialty Inc.). As to conditions: hPBMCs, 125I-MCP-1; figure in parentheses in the cell not copied (count of determinations); read-out: CCR2 Binding IC50. How it is done: See also: Yoshimura et al., J. Immunol. 1990, 145, 292. The human CCR2 binding assay was established with human peripheral blood mononuclear cells (hPBMCs) using ^125I-human MCP-1 as the tracer ligand. hPBMCs were isolated from human leukopak (Biological Specialty Inc.) using a standard protocol with Ficoll-Hypaque (Mediatech Cellgro). Isolated hPBMCs were washed and diluted to 1×10^7/ml in binding buffer (RPMI-1640, 0.1% BSA, 20 mM Hepes, pH 7.4). ^125I-MCP-1 (NEN/Perk Elmer) was diluted to 0.45 nM in binding buffer. The compound was diluted in binding buffer at 3-fold the final concentrations used in the binding assay. The binding assay was performed using a 96-well filter plate (Millipore). Total ^125I-MCP-1 binding was assessed as follows: to each reaction of a total volume of 150 μl were added 5×10^5 cells, 0.15 nM […], and compound such that the final concentration ranged from 0 to 100 nM. The plate was incubated at room temperature for 30 minutes followed by three washes with RPMI-1640, 0.1% BSA, 0.4 M NaCl, 20 mM Hepes, pH 7.4 using a vacuum manifold filtration (Millipore). After washing, the plate was air-dried for 60 minutes at room temperature. This was followed by adding 25 μl of Microscint 20 into each well. The plate was sealed and counted on the Trilux for 1 minute. Non-specific binding was determined in the presence of 300 nM cold MCP-1 (PeproTech Inc.). Specific 1-MCP-1 was calculated as the difference between total and non-specific binding. All conditions were tested in duplicate.

Series [6] deals with T2, human CCR2. The series is described as follows: CCR2 chemotaxis (MCP-1-induced, THP-1 cells). Further details: hPBMCs were isolated from human leukopak (Biological Specialty Inc.); endogenous in cells; host or cells: human peripheral blood mononuclear cells from leukopak (Biological Specialty Inc.). The class given is cell-based. How it is done:
The human CCR2 chemotaxis assay was conducted with the human monocytic cell line, THP-1. THP-1 cells were first labeled with the fluorescent dye Calcein-AM in phenol red-free, BSA-free RPMI-1640 (pH 7.4) at 37° C. for 30 minutes with gentle mixing every 15 minutes. The labeled cells were then washed and re-suspended at 1×10^5/ml in chemotaxis buffer (phenol red-free RPMI-1640, 0.1% BSA, pH 7.4). The test compound was diluted in chemotaxis buffer such that the final assay concentration ranged from 0.01 nM to 1 μM. […] To perform the assay, an equal volume of test compound dilutions was mixed with an equal volume of labeled THP-1 cells (Mixture 1), and an equal volume of test compound dilutions was mixed with an equal volume of diluted MCP-1 ligand (Mixture 2). Both mixtures were incubated independently at 37° C. for 10 minutes followed by gentle mixing. MCP-1-induced chemotaxis was then measured in a chemotaxis plate (Becton Dickinson) by placing 50 μl of Mixture 1 in the top chamber and 225 μl of Mixture 2 in the bottom chamber. The plate was covered with a lid and incubated at 37° C. for 30 minutes. 30 minutes later, the plate was read on a Cytofluor. All conditions were tested in duplicate. […] The inhibition achieved by graded concentrations of test compound was calculated as a percentage of the compound-free MCP-1 control.

Series [7] concerns the target T2, human CCR2. Nature of the series: THP-1 binding (CCR2, 125I-human MCP-1 tracer). As to conditions: metabolite examples; THP-1 cells, 125I-MCP-1. Further details: THP-1 human monocytic leukemic cell line, which expresses endogenous CCR2; endogenous in cells; host or cells: THP-1 human monocytic leukemia cells. How it is done: The human CCR2 binding assay was also established with the THP-1 human monocytic leukemic cell line, which expresses endogenous CCR2, using 125I-human MCP-1 as the tracer ligand. Radioligand competition binding assays were used for assessment of binding affinity of test compounds to the CCR2 receptor. For radioligand competition studies, 100 μl containing 2.5×10^5 THP-1 cells/well (in assay buffer containing 50 mM HEPES, pH7.4, 5 mM MgCl2, 1 mM CaCl2 and 0.5% BSA) were added to 96-well assay plates containing test compound in 3-fold serial dilution, with final concentrations ranging from […]. Subsequently, 50 μl ^125I-MCP-1 radioligand at a final concentration of 0.2 nM in assay buffer were added to the reaction. After a 90 minute incubation period at room temperature, the binding reaction was terminated by harvesting on GF/B filter plates (PerkinElmer Cat. No. 6005177) followed by washing with ice-cold wash buffer (50 mM HEPES, pH 7.4, 0.1% BSA, 0.5 M NaCl) to remove unbound ligand. After washing, the plate was dried for 45 minutes at 60° C. followed by addition of 40 μl MicroScint 20 scintillation fluid, sealed and analyzed by the Packard TopCount reader. […] The competition data was plotted as a percentage inhibition of radioligand specific bound in the absence of test compound (percent of total signal). After correcting for non-specific binding, IC50 values were determined.

Series [8] can be described thus: Single-dose pharmacokinetics in rats. The class given is in vivo. As to conditions: male, Sprague-Dawley, plasma, rat, dose per compound (mg/kg). How it is done: (1500-2000×g) to obtain plasma. […] Plasma samples, obtained by centrifugation at 4° C.
Series [9] is described as follows: Single-dose pharmacokinetics in monkeys. The class given is in vivo. As to conditions: male, cynomolgus monkey, plasma, dose per compound (mg/kg). An excerpt:
(1500-2000×g) to obtain plasma.

human cardiac sodium channel, SCN5A (Nav1.5), sequence (Q14524 whole entry): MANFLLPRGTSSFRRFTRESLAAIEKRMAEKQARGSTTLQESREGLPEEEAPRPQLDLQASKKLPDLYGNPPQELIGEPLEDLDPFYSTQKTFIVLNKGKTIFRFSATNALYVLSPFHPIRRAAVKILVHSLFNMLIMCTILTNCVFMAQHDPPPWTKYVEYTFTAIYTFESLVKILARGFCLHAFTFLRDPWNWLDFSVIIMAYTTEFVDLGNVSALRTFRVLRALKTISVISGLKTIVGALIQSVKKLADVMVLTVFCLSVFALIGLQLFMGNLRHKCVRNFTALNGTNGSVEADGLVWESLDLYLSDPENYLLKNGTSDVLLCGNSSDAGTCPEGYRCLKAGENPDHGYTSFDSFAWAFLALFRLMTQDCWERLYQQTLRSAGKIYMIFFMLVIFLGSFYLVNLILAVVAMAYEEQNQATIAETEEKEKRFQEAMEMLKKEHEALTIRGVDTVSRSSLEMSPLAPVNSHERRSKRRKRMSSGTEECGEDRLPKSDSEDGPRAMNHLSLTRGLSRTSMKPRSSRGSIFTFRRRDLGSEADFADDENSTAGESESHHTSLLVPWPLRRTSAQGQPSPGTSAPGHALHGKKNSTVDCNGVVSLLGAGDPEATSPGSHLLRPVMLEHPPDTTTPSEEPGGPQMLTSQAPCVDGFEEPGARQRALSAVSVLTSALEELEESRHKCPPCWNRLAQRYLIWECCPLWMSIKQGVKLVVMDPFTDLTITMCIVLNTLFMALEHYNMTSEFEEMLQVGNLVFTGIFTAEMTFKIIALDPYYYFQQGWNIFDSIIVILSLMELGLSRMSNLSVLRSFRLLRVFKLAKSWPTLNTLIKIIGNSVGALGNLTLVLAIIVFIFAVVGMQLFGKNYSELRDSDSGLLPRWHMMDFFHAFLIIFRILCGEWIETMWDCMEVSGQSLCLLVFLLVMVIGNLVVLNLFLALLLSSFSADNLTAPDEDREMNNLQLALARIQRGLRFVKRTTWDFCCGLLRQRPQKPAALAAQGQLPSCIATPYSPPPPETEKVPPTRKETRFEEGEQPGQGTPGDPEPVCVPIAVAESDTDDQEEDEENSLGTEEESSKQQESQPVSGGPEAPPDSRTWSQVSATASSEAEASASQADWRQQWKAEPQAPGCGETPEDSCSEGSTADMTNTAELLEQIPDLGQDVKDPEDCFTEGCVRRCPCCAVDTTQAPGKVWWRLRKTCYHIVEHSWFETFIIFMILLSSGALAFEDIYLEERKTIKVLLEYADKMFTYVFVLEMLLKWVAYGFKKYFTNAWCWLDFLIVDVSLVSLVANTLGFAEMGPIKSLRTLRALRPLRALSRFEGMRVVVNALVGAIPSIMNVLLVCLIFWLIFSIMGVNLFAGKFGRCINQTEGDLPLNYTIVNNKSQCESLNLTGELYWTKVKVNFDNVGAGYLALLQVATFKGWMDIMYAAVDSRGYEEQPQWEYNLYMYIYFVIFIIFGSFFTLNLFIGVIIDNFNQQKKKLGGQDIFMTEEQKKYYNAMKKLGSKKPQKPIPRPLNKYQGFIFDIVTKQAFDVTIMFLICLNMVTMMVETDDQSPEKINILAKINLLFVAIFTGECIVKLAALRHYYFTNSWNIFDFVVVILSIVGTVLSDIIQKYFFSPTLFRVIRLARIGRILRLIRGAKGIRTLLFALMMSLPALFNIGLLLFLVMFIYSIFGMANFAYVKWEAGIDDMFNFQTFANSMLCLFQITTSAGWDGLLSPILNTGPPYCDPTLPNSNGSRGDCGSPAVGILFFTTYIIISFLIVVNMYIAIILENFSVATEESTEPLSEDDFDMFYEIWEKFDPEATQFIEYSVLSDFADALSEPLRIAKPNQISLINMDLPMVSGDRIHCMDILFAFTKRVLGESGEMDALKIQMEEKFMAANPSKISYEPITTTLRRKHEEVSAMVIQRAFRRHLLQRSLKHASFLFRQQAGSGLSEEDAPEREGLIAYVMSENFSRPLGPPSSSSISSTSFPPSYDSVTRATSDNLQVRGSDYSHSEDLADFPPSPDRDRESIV
T1 sequence (Q12809 whole entry): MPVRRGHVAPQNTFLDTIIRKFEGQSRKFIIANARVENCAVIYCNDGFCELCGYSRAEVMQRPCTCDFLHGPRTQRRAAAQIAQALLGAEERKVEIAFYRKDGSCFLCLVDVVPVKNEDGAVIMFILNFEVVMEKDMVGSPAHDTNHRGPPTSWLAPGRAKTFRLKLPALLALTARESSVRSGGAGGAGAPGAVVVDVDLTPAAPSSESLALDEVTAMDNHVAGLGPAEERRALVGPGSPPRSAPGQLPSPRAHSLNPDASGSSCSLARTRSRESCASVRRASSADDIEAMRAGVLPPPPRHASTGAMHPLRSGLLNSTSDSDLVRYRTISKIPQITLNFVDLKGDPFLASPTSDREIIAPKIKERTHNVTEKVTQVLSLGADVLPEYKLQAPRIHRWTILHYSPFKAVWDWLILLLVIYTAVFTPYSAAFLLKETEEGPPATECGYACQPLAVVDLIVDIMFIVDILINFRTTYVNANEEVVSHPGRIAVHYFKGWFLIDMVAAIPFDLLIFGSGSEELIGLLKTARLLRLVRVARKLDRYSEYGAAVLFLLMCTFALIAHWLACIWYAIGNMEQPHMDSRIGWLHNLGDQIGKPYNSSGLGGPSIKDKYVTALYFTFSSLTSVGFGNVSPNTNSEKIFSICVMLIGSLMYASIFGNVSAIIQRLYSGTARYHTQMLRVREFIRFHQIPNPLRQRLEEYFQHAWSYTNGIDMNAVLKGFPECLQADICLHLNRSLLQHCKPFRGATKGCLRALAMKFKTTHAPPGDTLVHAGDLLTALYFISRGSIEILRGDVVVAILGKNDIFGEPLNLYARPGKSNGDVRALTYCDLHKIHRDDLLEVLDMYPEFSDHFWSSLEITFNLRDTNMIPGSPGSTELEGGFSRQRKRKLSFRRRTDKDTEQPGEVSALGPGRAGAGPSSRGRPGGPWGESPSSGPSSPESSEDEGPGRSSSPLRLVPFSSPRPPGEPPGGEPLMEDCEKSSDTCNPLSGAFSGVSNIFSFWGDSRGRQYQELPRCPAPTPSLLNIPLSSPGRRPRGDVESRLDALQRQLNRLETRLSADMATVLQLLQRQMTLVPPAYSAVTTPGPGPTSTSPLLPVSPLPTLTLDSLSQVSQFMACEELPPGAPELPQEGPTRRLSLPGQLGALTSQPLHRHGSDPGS

In general, IC50 refers to the point on the concentration scale where inhibition reaches its midpoint. The term Papp denotes the rate of passage across a membrane or cell layer, normalised by area and donor concentration. A lower Papp goes with poor permeation. A word on the inhibition: it is the change of the read-out against control, counted positive when it falls. For the molecule `CC(=O)N[C@@H]1C[C@H](N(C)C(C)C)CC[C@@H]1N1CC[C@H](NC(=O)c2cccc(C(C)(C)C)n2)C1=O` [Example 9, N-((3S)-1-((1S,2R,4R)-2-acetamido-4-(isopropyl(methyl)amino)cyclohexyl)-2-oxo-3-pyrrolidinyl)-6-tert-butyl-2-pyridinecarboxamide], the IC50 against hERG [1] is more than 80 µM; at human CCR2 [5], 1.69 ± 0.67 nM; against human CCR2 [6], 0.35 nM. This molecule displayed a Papp at 4 h, 100 µM in [2] of 26.6 ×10⁻⁶ cm/s. The same molecule had an inhibition at 10000 nM against hERG [3] of 26%. Moreover, the inhibition at 30000 nM against hERG [3] is 41%; in series [4] it was 6%.

In the case of `CC(C)N(C)[C@@H]1CC[C@H](N2CC[C@H](Nc3ncnc4ccc(C(F)(F)F)cc34)C2=O)[C@H](NC=O)C1` [Example 7, N-((1R,2S,5R)-5-(isopropyl(methyl)amino)-2-((S)-2-oxo-3-(6-(trifluoromethyl)quinazolin-4-ylamino)pyrrolidin-1-yl)cyclohexyl)formamide], the IC50 against hERG [1] is more than 80 µM; on human CCR2 [5], 1.72 ± 0.54 nM; at human CCR2 [6] it was 2.85 nM. In series [2], this molecule displayed a Papp at 4 h, 100 µM of 32.6 ± 22.1 ×10⁻⁶ cm/s. For the same molecule, the inhibition at 10000 nM against hERG [3] stood at 12%. Besides, the results for the inhibition at 30000 nM (at hERG [3]; in series [4]) were 29% and 10%, respectively.

With `CC(=O)N[C@@H]1C[C@H](NC(C)C)CC[C@@H]1N1CC[C@H](Nc2nc[n+]([O-])c3ccc(C(F)(F)F)cc23)C1=O` [Example 6, N-((1R,2S,5R)-5-(isopropylamino)-2-((3S)-3-((1-oxido-6-(trifluoromethyl)-4-quinazolinyl)amino)-2-oxo-1-pyrrolidinyl)cyclohexyl)acetamide], the IC50 at human CCR2 [7] amounted to 139 nM.

The clearance is the volume of plasma or blood freed of the substance per unit of time. Higher therefore signals a high capacity for elimination. In general, AUC refers to the area under the concentration-time curve, a measure of exposure. Lower therefore signals low exposure. One may read the bioavailability as the share of a dose that reaches the circulation, judged against a reference dose that is usually intravenous. Low readings indicate poor availability, high ones good availability. On to `CCC(=O)N[C@@H]1C[C@H](N)CC[C@@H]1N1CC[C@H](Nc2ncnc3ccc(C(F)(F)F)cc23)C1=O` [Example 10, N-((1R,2S,5R)-5-amino-2-((3S)-2-oxo-3-((6-(trifluoromethyl)-4-quinazolinyl)amino)-1-pyrrolidinyl)cyclohexyl)propanamide], for which the IC50 is more than 80 µM against hERG [1], 5.18 ± 1.98 nM on human CCR2 [5] and 1.6 ± 0.42 nM on human CCR2 [6]. Also, in series [2], the Papp at 4 h, 100 µM worked out at 22.8 ×10⁻⁶ cm/s. Besides, the inhibition at 30000 nM worked out at 33% at hERG [3] and 35% in series [4]. The clearance in series [8] (IV) was 45 mL/min/kg; in [9] (IV), 21 mL/min/kg. For the same molecule, the AUC came out at 4.23 µM·h in series [8] (PO) and 1.08 µM·h in series [9] (PO). Moreover, the bioavailability in series [8] (oral bioavailability) amounted to 57%; in [9] (oral bioavailability) it was 67%.

Turning to `CC(=O)N[C@@H]1C[C@H](N(C)C(C)C)CC[C@@H]1N1CC[C@H](Nc2ncnc3cnc(C(C)(C)C)nc23)C1=O` [Example 1, N-((1R,2S,5R)-2-((3S)-3-((6-tert-butylpyrimido[5,4-d]pyrimidin-4-yl)amino)-2-oxo-1-pyrrolidinyl)-5-(isopropyl(methyl)amino)cyclohexyl)acetamide], the values for the IC50 at hERG [1], at human CCR2 [5] and on human CCR2 [6] were more than 80 µM, 3.34 ± 0.32 nM and 3.85 ± 0.36 nM, respectively. Further, the Papp at 4 h, 100 µM in series [2] is 18.7 ×10⁻⁶ cm/s. The molecule also displayed an inhibition at 10000 nM on hERG [3] of 8%. The inhibition at 30000 nM at hERG [3] was determined as 17%; in [4] it was 13%.
